Laboratory results as given in the supplement of paper PMC6315032.

Experiments:
Assay in all cases: apparent dissociation constant (pKDapp, Kinobeads competition, Cheng-Prusoff corrected) (-log10 M); higher = tighter binding
AKT2 = AKT2 (UniProt P31751); settings: affinity matrix / lysate: Kinobeads, mixed HEK293/K-562/placenta lysate
ARAF = ARAF (UniProt P10398); settings: affinity matrix / lysate: Kinobeads, mixed HEK293/K-562/placenta lysate
CAMK2G = CAMK2G (UniProt Q13555); settings: affinity matrix / lysate: Kinobeads, mixed HEK293/K-562/placenta lysate
CDK10 = CDK10 (UniProt Q15131); settings: affinity matrix / lysate: Kinobeads, mixed HEK293/K-562/placenta lysate
DSTYK = DSTYK (UniProt Q6XUX3); settings: affinity matrix / lysate: Kinobeads, mixed HEK293/K-562/placenta lysate
EGFR = EGFR (UniProt P00533); settings: affinity matrix / lysate: Kinobeads, mixed HEK293/K-562/placenta lysate
EPHA1 = EPHA1 (UniProt P21709); settings: affinity matrix / lysate: Kinobeads, mixed HEK293/K-562/placenta lysate
FGFR2 = FGFR2 (UniProt P21802); settings: affinity matrix / lysate: Kinobeads, mixed HEK293/K-562/placenta lysate
FGR = FGR (UniProt P09769); settings: affinity matrix / lysate: Kinobeads, mixed HEK293/K-562/placenta lysate
HCK = HCK (UniProt P08631); settings: affinity matrix / lysate: Kinobeads, mixed HEK293/K-562/placenta lysate
HIPK2 = HIPK2 (UniProt Q9H2X6); settings: affinity matrix / lysate: Kinobeads, mixed HEK293/K-562/placenta lysate
IKBKB = IKBKB (UniProt O14920); settings: affinity matrix / lysate: Kinobeads, mixed HEK293/K-562/placenta lysate
IKBKE = IKBKE (UniProt Q14164); settings: affinity matrix / lysate: Kinobeads, mixed HEK293/K-562/placenta lysate
MAP3K6 = MAP3K6 (UniProt O95382); settings: affinity matrix / lysate: Kinobeads, mixed HEK293/K-562/placenta lysate
MAP4K5 = MAP4K5 (UniProt Q9Y4K4); settings: affinity matrix / lysate: Kinobeads, mixed HEK293/K-562/placenta lysate
MARK4 = MARK4 (UniProt Q96L34); settings: affinity matrix / lysate: Kinobeads, mixed HEK293/K-562/placenta lysate
MINK1 = MINK1 (UniProt Q8N4C8); settings: affinity matrix / lysate: Kinobeads, mixed HEK293/K-562/placenta lysate
NTRK1 = NTRK1 (UniProt P04629); settings: affinity matrix / lysate: Kinobeads, mixed HEK293/K-562/placenta lysate
PAK4 = PAK4 (UniProt O96013); settings: affinity matrix / lysate: Kinobeads, mixed HEK293/K-562/placenta lysate
PI4K2B = PI4K2B (UniProt Q8TCG2); settings: affinity matrix / lysate: Lipid Kinobeads, mixed HeLa/Jurkat/K-562 lysate
PI4KB = PI4KB (UniProt Q9UBF8); settings: affinity matrix / lysate: Lipid Kinobeads, mixed HeLa/Jurkat/K-562 lysate
PIP5K3 = PIP5K3 (UniProt Q9Y2I7); settings: affinity matrix / lysate: Kinobeads, mixed HEK293/K-562/placenta lysate
PRKAA1 = PRKAA1 (UniProt Q13131); settings: affinity matrix / lysate: Kinobeads, mixed HEK293/K-562/placenta lysate
PRKD1 = PRKD1 (UniProt Q15139); settings: affinity matrix / lysate: Kinobeads, mixed HEK293/K-562/placenta lysate
RIOK2 = RIOK2 (UniProt Q9BVS4)
RPS6KA5 = RPS6KA5 (UniProt O75582); settings: affinity matrix / lysate: Kinobeads, mixed HEK293/K-562/placenta lysate
RPS6KA6 = RPS6KA6 (UniProt Q9UK32); settings: affinity matrix / lysate: Kinobeads, mixed HEK293/K-562/placenta lysate
RPS6KB1 = RPS6KB1 (UniProt P23443); settings: affinity matrix / lysate: Kinobeads, mixed HEK293/K-562/placenta lysate
SGK3 = SGK3 (UniProt Q96BR1); settings: affinity matrix / lysate: Kinobeads, mixed HEK293/K-562/placenta lysate
STK11 = STK11 (UniProt Q15831); settings: affinity matrix / lysate: Kinobeads, mixed HEK293/K-562/placenta lysate
STK16 = STK16 (UniProt O75716); settings: affinity matrix / lysate: Kinobeads, mixed HEK293/K-562/placenta lysate
STK35 = STK35 (UniProt Q8TDR2); settings: affinity matrix / lysate: Kinobeads, mixed HEK293/K-562/placenta lysate
TP53RK = TP53RK (UniProt Q96S44); settings: affinity matrix / lysate: Kinobeads, mixed HEK293/K-562/placenta lysate
[1] = affinity matrix / lysate: Kinobeads, mixed HEK293/K-562/placenta lysate
[2] = affinity matrix / lysate: Lipid Kinobeads, mixed HeLa/Jurkat/K-562 lysate

Measured: apparent dissociation constant (-log10 M)

RIOK2, sequence (Q9BVS4 whole entry, looked up): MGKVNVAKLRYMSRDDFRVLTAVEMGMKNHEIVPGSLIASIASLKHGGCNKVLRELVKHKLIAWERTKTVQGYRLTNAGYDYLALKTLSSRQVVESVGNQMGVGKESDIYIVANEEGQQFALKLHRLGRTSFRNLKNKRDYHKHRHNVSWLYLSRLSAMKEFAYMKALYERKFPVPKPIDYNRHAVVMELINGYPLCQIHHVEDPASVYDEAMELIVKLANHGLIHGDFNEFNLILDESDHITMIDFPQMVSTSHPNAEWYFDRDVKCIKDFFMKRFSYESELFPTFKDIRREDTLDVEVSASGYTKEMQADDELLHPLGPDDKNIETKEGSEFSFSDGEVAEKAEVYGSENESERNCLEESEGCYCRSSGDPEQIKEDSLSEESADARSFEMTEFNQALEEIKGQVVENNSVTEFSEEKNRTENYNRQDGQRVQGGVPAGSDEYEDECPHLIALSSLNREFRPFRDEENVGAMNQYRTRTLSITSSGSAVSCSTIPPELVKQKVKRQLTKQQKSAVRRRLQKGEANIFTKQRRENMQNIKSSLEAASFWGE
RPS6KA6, sequence (Q9UK32 whole entry): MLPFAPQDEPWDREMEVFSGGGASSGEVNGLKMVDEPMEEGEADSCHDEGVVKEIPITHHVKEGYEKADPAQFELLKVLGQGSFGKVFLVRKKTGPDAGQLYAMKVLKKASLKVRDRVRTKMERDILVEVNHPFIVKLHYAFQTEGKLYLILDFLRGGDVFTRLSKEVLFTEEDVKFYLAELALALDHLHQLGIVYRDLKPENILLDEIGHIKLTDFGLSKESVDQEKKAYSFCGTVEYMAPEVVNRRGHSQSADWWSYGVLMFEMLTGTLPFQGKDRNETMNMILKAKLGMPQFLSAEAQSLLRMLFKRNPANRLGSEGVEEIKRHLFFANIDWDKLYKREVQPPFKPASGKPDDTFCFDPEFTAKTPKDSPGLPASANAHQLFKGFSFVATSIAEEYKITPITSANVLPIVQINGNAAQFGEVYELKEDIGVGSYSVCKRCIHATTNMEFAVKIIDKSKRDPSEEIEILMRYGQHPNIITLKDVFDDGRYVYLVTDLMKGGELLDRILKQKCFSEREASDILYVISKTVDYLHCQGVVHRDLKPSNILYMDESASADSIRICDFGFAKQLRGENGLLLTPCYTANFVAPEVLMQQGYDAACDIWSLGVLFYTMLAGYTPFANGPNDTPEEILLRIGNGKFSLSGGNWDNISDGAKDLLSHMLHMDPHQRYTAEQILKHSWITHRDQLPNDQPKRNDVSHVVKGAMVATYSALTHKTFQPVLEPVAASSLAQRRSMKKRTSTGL
STK16, sequence (O75716 whole entry): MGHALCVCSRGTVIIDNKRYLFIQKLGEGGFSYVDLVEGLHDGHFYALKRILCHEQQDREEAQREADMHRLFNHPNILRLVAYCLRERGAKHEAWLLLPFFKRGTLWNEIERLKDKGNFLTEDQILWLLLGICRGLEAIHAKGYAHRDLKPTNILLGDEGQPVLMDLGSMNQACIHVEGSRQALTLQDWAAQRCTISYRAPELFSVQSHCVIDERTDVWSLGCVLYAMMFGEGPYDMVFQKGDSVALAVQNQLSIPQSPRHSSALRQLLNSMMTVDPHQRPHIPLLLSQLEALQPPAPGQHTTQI
MAP4K5, sequence (Q9Y4K4 whole entry, looked up): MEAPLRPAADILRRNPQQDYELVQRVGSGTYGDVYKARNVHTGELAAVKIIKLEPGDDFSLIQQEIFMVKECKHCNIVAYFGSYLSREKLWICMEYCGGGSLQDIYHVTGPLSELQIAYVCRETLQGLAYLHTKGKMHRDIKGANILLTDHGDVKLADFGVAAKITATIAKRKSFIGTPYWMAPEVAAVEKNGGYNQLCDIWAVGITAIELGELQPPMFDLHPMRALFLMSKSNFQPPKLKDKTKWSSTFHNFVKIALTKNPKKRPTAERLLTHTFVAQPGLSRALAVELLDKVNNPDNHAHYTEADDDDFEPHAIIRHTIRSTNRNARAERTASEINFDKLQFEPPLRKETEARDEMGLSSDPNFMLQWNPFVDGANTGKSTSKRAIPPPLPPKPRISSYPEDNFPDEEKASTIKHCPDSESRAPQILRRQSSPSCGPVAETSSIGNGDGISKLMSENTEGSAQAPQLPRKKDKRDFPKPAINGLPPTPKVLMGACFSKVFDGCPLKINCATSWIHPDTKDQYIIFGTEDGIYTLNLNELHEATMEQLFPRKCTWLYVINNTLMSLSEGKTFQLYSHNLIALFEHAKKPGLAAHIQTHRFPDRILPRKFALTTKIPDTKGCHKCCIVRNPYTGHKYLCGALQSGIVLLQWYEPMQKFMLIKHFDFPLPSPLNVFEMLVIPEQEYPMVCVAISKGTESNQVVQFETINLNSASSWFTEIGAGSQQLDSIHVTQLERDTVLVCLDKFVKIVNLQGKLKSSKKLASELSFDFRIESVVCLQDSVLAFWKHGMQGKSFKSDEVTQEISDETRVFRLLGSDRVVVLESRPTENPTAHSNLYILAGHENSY
CAMK2G, sequence (Q13555 whole entry): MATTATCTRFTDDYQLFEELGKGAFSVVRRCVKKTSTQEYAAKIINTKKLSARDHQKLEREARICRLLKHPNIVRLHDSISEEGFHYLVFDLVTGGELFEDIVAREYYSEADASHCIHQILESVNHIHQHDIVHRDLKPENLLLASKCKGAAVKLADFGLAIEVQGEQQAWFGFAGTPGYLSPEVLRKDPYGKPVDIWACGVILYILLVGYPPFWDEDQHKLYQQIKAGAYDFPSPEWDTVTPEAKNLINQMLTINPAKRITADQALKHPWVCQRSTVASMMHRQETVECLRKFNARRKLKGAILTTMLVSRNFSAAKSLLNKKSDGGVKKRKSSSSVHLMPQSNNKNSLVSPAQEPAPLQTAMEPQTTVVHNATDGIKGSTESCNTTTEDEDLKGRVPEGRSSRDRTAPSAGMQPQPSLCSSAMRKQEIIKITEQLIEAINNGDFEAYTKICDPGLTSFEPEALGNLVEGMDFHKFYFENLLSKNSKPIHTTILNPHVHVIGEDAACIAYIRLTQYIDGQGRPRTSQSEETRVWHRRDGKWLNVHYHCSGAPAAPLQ
AKT2, sequence (P31751 whole entry): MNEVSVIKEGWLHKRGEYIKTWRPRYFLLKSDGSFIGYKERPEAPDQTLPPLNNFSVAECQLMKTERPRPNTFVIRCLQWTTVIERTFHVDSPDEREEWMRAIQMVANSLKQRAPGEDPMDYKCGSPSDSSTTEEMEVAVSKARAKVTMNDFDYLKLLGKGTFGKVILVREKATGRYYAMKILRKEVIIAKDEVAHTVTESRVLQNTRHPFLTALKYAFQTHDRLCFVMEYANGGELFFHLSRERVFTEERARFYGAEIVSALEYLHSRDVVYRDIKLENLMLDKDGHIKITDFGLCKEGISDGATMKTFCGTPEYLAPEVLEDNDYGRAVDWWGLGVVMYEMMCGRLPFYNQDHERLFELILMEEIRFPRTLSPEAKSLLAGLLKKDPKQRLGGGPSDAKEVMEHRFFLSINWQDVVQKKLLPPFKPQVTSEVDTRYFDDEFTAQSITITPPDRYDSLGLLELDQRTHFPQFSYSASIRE
IKBKB, sequence (O14920 whole entry): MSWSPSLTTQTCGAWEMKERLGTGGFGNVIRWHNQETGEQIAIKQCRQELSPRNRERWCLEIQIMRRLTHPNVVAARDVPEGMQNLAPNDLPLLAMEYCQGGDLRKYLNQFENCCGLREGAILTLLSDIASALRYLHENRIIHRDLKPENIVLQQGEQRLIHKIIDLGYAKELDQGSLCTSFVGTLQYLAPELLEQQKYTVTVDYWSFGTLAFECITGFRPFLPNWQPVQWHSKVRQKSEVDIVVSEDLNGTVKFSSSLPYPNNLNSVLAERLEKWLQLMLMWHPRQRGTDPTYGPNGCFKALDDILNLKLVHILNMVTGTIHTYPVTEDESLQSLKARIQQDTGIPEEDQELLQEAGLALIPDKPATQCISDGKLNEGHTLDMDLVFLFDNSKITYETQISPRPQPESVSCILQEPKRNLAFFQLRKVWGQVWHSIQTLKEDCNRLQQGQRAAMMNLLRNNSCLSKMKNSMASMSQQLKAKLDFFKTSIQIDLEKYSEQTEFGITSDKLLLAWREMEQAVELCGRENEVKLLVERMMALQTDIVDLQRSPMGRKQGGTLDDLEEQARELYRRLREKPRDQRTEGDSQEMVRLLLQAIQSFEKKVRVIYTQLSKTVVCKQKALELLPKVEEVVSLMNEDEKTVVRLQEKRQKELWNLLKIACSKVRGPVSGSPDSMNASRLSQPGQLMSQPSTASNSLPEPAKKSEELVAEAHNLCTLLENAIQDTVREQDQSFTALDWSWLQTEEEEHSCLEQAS
MARK4, sequence (Q96L34 whole entry): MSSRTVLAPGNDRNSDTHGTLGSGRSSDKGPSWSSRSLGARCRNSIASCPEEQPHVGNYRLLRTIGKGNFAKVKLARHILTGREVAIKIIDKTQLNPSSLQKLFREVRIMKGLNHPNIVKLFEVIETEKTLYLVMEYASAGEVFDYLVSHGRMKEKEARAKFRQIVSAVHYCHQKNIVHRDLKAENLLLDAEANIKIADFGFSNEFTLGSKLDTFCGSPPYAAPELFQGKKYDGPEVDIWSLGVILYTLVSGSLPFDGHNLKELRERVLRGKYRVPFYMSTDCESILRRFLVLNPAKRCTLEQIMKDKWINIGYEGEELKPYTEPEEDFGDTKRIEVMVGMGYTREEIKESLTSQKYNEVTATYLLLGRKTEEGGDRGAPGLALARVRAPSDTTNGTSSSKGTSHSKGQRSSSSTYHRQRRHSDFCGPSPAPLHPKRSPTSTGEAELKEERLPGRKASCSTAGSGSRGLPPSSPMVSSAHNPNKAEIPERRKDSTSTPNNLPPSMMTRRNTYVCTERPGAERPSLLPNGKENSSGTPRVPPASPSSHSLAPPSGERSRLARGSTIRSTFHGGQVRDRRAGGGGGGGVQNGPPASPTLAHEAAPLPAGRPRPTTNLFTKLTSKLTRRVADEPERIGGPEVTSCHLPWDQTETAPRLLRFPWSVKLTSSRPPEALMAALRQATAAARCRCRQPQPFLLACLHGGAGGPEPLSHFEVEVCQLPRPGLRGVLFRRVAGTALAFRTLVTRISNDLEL

COc1ccc(-c2ccc3c(N4CCOC[C@@H]4C)nc(N4CCOC[C@@H]4C)nc3n2)cc1CO [AZD8055]
< 6: AKT2 | ARAF | CAMK2G | CDK10 | DSTYK | EGFR | EPHA1 | FGFR2 | FGR | HCK | HIPK2 | IKBKB | IKBKE | MAP3K6 | MAP4K5 | MARK4 | MINK1 | NTRK1 | PAK4 | PI4K2B | PI4KB | PIP5K3 | PRKAA1 | PRKD1 | RIOK2; [1] | RIOK2; [2] | RPS6KA5 | RPS6KA6 | RPS6KB1 | SGK3 | STK11 | STK16 | STK35 | TP53RK

CCNC(=O)Nc1ccc(-c2nc(N3CCOC[C@@H]3C)c3c(n2)C(C)(C)S(=O)(=O)C3)cc1 [CZ415]
< 6: AKT2 | ARAF | CAMK2G | CDK10 | DSTYK | EGFR | EPHA1 | FGFR2 | FGR | HCK | HIPK2 | IKBKB | IKBKE | MAP3K6 | MAP4K5 | MARK4 | MINK1 | NTRK1 | PAK4 | PI4K2B | PI4KB | PIP5K3 | PRKAA1 | PRKD1 | RIOK2; [1] | RIOK2; [2] | RPS6KA5 | RPS6KA6 | RPS6KB1 | SGK3 | STK11 | STK16 | STK35 | TP53RK
